Paper PMC5003771 (Molecular microbiology, 2015)

What was measured:
[1] = target: CabPA (Streptococcus mutans, UniProt Q8DT33); assay: DRaCALA, […]-labelled c-di-AMP on nitrocellulose; assay type: binding
[2] = target: CabPB (Streptococcus mutans, UniProt Q8DSR3); assay: DRaCALA, […]-labelled c-di-AMP on nitrocellulose; assay type: binding

Question: Which Kd [1] does the source give for `Nc1ncnc2c1ncn2[C@@H]1O[C@@H]2COP(=O)(O)O[C@H]3[C@@H](O)[C@H](n4cnc5c(N)ncnc54)O[C@@H]3COP(=O)(O)O[C@H]2[C@H]1O` [c-di-AMP] here?
Answer: 7.8 ± 0.3 µM

Question: And the Kd [2]?
Answer: 1.2 ± 0.2 µM
